The results in this text go back to patent US20130158098A1, “Alkenyl Substituted Cycloaliphatic Compounds as Chemical Inducers of Proximity” (priority 2010, published 2013).

Data set [1] has as its target T1, VP16-PYLcs and Gal4 DBD-ABIcs (Arabidopsis thaliana, UniProt Q8VZS8).
T1 construct: HA (from the reverse primer); expressed in transfected cells; host or cells: CHO; also HEK 293/293T, NIH3T3, COS7, B35, Jurkat, E14, TC1, MEF
T1 sequence (Q8VZS8 33-209): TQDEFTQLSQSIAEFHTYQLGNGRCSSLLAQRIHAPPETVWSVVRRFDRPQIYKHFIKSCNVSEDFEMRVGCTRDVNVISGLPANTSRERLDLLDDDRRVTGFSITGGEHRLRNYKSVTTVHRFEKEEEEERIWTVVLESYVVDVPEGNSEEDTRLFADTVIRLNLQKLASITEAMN
T1 sequence (P49597 126-423 partner): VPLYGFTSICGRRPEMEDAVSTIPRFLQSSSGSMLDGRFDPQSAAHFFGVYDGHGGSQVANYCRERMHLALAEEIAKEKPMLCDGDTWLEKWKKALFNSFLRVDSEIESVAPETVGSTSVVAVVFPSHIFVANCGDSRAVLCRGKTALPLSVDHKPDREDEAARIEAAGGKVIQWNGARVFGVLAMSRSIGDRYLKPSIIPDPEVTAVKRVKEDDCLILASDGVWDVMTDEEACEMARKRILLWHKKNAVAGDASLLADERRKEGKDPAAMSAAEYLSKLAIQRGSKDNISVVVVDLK
Kind of data set: ABA-induced GFP reporter activation in various cell lines. The class given is cell-based. The settings on record: 100 μM, 24 h; CHO, HEK 293, Cos7, NIH3T3, TC1 cells. An excerpt: Activation construct: A fragment of PYL1 (one of PYR/PYL/RCAR members) (aa 33-209, also referred to as “PYLcs”) was linked to a transcriptional activation domain and a fragment of ABI1 (one of PP2C members) (aa 126-423, SEQ ID NO:2, also referred to as “ABIcs”) was linked to a DNA binding domain using recombinant DNA methods. In the constructs illustrated in FIG. 1 and FIG. 2, PYL1 (“PYLcs”) is fused to the VP16 activation domain and ABI1 (“ABIcs”) is fused to the Gal4 DNA binding domain. These two regulatory elements are linked by IRES and driven by the SV40 early promoter. Reporter constructs: Full length Luciferase is driven by Fos gene minimal promoter with 5 copies of Gal4 DNA binding sites immediately upstream of Fos promoter. GFP reporter is driven by IL2 minimal promoter with 5×Gal4 DNA binding sites upstream.
ABA regulated transcriptional activation is applicable to various cell lines from different origins besides CHO cells, as shown in FIG. 7. […] 100 μM of ABA was then added to the cell culture and cells were observed under fluorescence microscope for GFP expression after another 24 h.

The nature of data set [2]: ABA stability in human serum (luciferase biofunctional readout). It counts as in vitro ADME. Here is the method: FIG. 3C provides the results of a stability test of ABA in cell culture conditions. CHO cells were pre-transfected with the activation and reporter DNA constructs for 24 hours. 100 μM ABA was then added to the culture and cells were assayed for luciferase activity after 10 hours. During the 10-hour incubation, the cell culture media were replaced with media containing freshly added ABA every 1, 2.5, 5 hour or no replacement. FIG. 4A illustrates the results of an experiment in which human serum pre-incubated ABA was used to induce luciferase transcription. ABA was incubated with pure non-heat inactivated human serum at 37° C. for indicated time period. ABA containing serum was then added to the CHO cell culture to a final 100 μM ABA concentration for 25 hours and cells were assayed for luciferase activity. The cells were pre-transfected with the activation and reporter DNA constructs for 24 hours. FIG. 4B illustrates the results of an experiment in which fetal bovine serum pre-incubated ABA was used to induce luciferase transcription. ABA was incubated with pure heat inactivated fetal bovine serum at 37° C. for indicated time period. ABA containing serum was then added to the CHO cell culture to a final 100 μM ABA concentration for 10 hours and cells were assayed for luciferase activity. The cells were pre-transfected with the activation and reporter DNA constructs for 24 hours.
In plants, ABA had been reported to be unstable due to active enzymatic degradation (Cutler, A. J. and Krochko, J. E. (1999) Formation and breakdown of ABA. Trends Plant Sci. 4, 472-478). […] The activity of residual ABA in the serum was measured by its ability to induce the transcriptional activation of the luciferase reporter in cells expressing the ABA-activator cassette. […] Using this assay, the bioavailability in mice was evaluated. […]

As to `CC1=CC(=O)CC(C)(C)C1(O)/C=C/C(C)=C/C(=O)O` (stereo not shown) [ABA, abscisic acid], the GFP reporter expression entry in data set [1] was “only expressed after ABA was added”. For the same compound, the “reduction in ability to induce transcription of luciferase” value in data set [2] (pure human serum, 37° C., up to 48 hours) is “no significant reduction”. Further, the “time ABA is stable in human serum” value in data set [2] (pure non-heat inactivated human serum, 37° C.) is listed as “at least 46 hours”. For the same compound, the stability in serum result in data set [2] (serum, over 48 hours) is on record as “stable”.
